# Experimental data from patent publication US10507227B2, “Cationic antimicrobial peptides” (The Hospital for Sick Children, priority 2014, dated 2019).
# Legend:
# [1] = system: clinical strains of P. aeruginosa; assay: microbe, parasite or virus in culture; assay type: cell-based, Pseudomonas aeruginosa; conditions: for MIC: Pseudomonas aeruginosa
# Description: MICs (μg/ml, x-axis) for each compound are shown below each graph. […] The OD at 600 nm quantitates the extent of bacterial growth. Diamonds=L6K-F17; squares=tobramycin. Incubation: 37° C. for 19-24 hours.
# Nine different clinical P. aeruginosa isolates were tested with a representative CAP, L-6KF17.
# [2] = system: clinically isolated P. aeruginosa mucoid strains (biofilm); assay: Biofilm antibacterial susceptibility assay, biofilm recovery plate (BICs); assay type: cell-based, Pseudomonas aeruginosa
# Description: (§1) The clinically isolated P. aeruginosa mucoid strains that were used in these experiments are described in Table 1.
# (§2) Methods: Prep Work—3 Days Culture the Clinical Mucoid P. aeruginosa Strains Isolated from CF Patients • 1. Freshly subculture the glycerol stock of the strain (stored at −80° C.) by streaking onto a blood agar (3˜4 streaks). Incubate the blood agar plate at 37° C. for 24 hr. The consistency of the mucoid phenotype can be improved by further subculturing (e.g., a total of 3 times, one/day). • 2. The following day, pick a few colonies and streak them onto a fresh blood agar. Note: Every time the cells are cultured using the stock strains (stored at −80° C.), they should be subcultured 3 times in total, and the last blood agar plate is then good for about one week. In the following week, the strains can be re-subcultured from the last agar plate to grow fresh colonies—this needs only to be done once (no need to do it 3 times). If the mucoid phenotype is lost, the glycerol stocks (−80° C.) should be used, and subcultured 3 times. Biofilm Assay—Day 1 Grow Overnight Cell Culture • 1. Inoculate freshly cultured cells (see prep work) in 10 mL TSB, and grow overnight at 37° C. on a shaker. […] Biofilm Assay—Day 2 Biofilm Set-up • 1. Make 0.5 McFarland for each strain/organism (add ˜100 μL O/N culture to 2 mL 50% TSB): • 0.5 McFarland=10^8 CFU/mL. • To calibrate a colourimeter/turbidity meter: • Positive blank: place a solid marker in the holder; turn the left knob to adjust to zero. • Negative blank: use a glass tube containing 50% TSB (1:1 TSB/H2O); adjust the right knob to 100% T. • Non-mucoid strains should be read in the lower ‘red zone’ on a colorimeter/turbidity meter. • Mucoid strains should be a bit heavier, and read in the mid ‘red zone’. • 2. Make bacterial inoculums: to a 50 mL falcon tube, add 300 μL of 0.5 McFarland to 19.7 mL of TSB. • 3. Mix the tube gently by inverting. • 4. In the biosafety fume hood or beside the flame: • Label a 96-well plate: strain and time. • Pour inoculum into a reservoir. • Using the multi-channel pipet, add 150 μL of inoculum into each well, leave the last column empty (last column=negative control, no cells). • Carefully place a peg lid onto the plate, match the cut corners. • 5. Place the plate on a shaker in 37° C. incubator (requires ≥3 h). Checking Biofilm Plate Growth • 1. Check plates periodically using a plate-reader to determine OD readings: • At OD650, aim for ˜0.045-0.050. • Depending on the strain, require 3-28 h to grow. […] Loading Antibiotic Plates • 1. Place the peg lid (containing biofilm growth) of the susceptibility plate into a pre-made 96-well antibiotic plate (see protocol from Day 1; see FIG. 1). Incubate at 37° C. for 24 h. * This will be referred to the planktonic growth plate, which measures the planktonic susceptibility in the biofilm assay, or MICs. * • 2. Place the lid of 96-well antibiotic plate onto the previous susceptibility plate, and keep in the fridge for reference until the experiment is completed. • 3. Proceed to perform inoculum check (see below) Inoculum Check • 1. Purity check: • Take a loopful of bacteria culture from any well of the susceptibility plate. • Spread onto half of a blood agar plate. • Place in the incubator at 37° C. for 24 h. • 2. Inoculum check: • In sterile Eppendorf tubes or liver vials (need 4 per strain), prepare the following dilutions: • a. 10^2: […] from any well of the susceptibility plate. • b. 10^3: 900 μL of H2O and 100 μL of mixture from Step (a). • c. 10^4: 900 μL of H2O and 100 μL of mixture from Step (b). • d. 10^5: 900 μL of H2O and 100 μL of mixture from Step (c). • Split blood agar plates into quadrants: two for 10^4 and two for 10^5. • Take 50 μL from Step (c) or Step (d) and place onto blood agar plates. • Let dry for about 30 min in the hood with the lid closed, and then incubate upside-down at 37° C. for 18˜24 h.
# [3] = system: clinically isolated P. aeruginosa mucoid strains; assay: microbe, parasite or virus in culture; conditions: Pseudomonas aeruginosa
# Description: as §1, §2
compound,measurement,setting,value
C[C@H](NC(=O)[C@H](C)NC(=O)[C@H](Cc1ccccc1)NC(=O)[C@H](C)NC(=O)[C@H](C)NC(=O)[C@H](Cc1c[nH]c2ccccc12)NC(=O)[C@H](C)NC(=O)[C@H](C)NC(=O)[C@H](Cc1ccccc1)NC(=O)[C@H](C)NC(=O)[C@H](C)NC(=O)[C@H](CCCCN)NC(=O)[C@H](CCCCN)NC(=O)[C@H](CCCCN)NC(=O)[C@H](CCCCN)NC(=O)[C@H](CCCCN)NC(=O)[C@@H](N)CCCCN)C(N)=O [L-6KF17],MIC compared with tobramycin,[1]; nine clinical P. aeruginosa isolates,equal to or superior to tobramycin in most cases
"NC[C@H]1O[C@H](O[C@H]2[C@H](O)[C@@H](O[C@H]3O[C@H](CO)[C@@H](O)[C@H](N)[C@H]3O)[C@H](N)C[C@@H]2N)[C@H](N)C[C@@H]1O [Tobramycin, tobramycin]",BIC,"[2]; strain HSC 003B3-1, biofilm",8 to 64 µg/mL
same,BIC,"[2]; strain HSC 020B2-1, biofilm",128 µg/mL
same,BIC,"[2]; strain HSC 027B2-3, biofilm",>128 µg/mL
same,BIC,"[2]; strain SMH 022B5-2, biofilm",≤0.5 µg/mL
same,BIC,"[2]; strain SMH 051B3-1, biofilm",≤0.5 µg/mL
same,BIC,"[2]; strain SMH 123E1-1, biofilm",0.5 to 1 µg/mL
same,MIC,[1]; strain HSC 002B10-2,1 µg/mL
same,MIC,[1]; strain HSC 004B1-3,8 µg/mL
same,MIC,[1]; strain HSC 007E3-2,8 µg/mL
same,MIC,[1]; strain HSC 035B7-1,> 32 µg/mL
same,MIC,[1]; strain SMH 064B15-2,2 µg/mL
same,MIC,[1]; strain SMH 072B5-2,> 32 µg/mL
same,MIC,[1]; strain SMH 112B41,2 µg/mL
same,MIC,[1]; strain SMH 130B12-1,8 µg/mL
same,MIC,[1]; strain SMH 154B10-2,16 µg/mL
same,MIC,"[3]; strain HSC 003B3-1, planktonic",2 to 8 µg/mL
same,MIC,"[3]; strain HSC 020B2-1, planktonic",32 to 64 µg/mL
same,MIC,"[3]; strain HSC 027B2-3, planktonic",> 128 µg/mL
same,MIC,"[3]; strain SMH 022B5-2, planktonic",≤ 0.5 µg/mL
same,MIC,"[3]; strain SMH 051B3-1, planktonic",≤ 0.5 µg/mL
same,MIC,"[3]; strain SMH 123E1-1, planktonic",≤ 0.5 µg/mL
"C[C@@H](O)[C@H]1C(=O)N2C(C(=O)O)=C(S[C@@H]3CN[C@H](C(=O)N(C)C)C3)[C@H](C)[C@H]12 [Meropenem, meropenem]",BIC,"[2]; strain HSC 003B3-1, biofilm",≤0.5 µg/mL
same,BIC,"[2]; strain HSC 020B2-1, biofilm",2 µg/mL
same,BIC,"[2]; strain HSC 027B2-3, biofilm",4 µg/mL
same,MIC,"[3]; strain HSC 003B3-1, planktonic",≤ 0.5 µg/mL
same,MIC,"[3]; strain HSC 020B2-1, planktonic",1 to 2 µg/mL
same,MIC,"[3]; strain HSC 027B2-3, planktonic",2 µg/mL
